Values joined by “and” are separate entries in the source; they are usually repeats but may differ in a detail not shown here. Identical values can stand only once. Counter-ions that a name gives are not always drawn.
System: lymphocytic leukemia P388
Assay: Lymphocytic leukemia P388 test
Format: in vivo, BDF/1 mice
Conditions: for Median Survival: mice with P388 leukemia; for T/Cx100: survival time treated/control
Description: Lymphocytic leukemia P388 test
The animals used were BDF/1 mice all of one sex, weighing a minimum of 18 g and all within a 3 g weight range. There were 5 or 6 animals per test group. The tumor transplant was by intraperitoneal injection of 0.5 ml of dilute ascitic fluid containing 10⁶ cells of lymphocytic leukemia P388. The test compounds were administered intraperitoneally on days 1,5 and 9 relative to tumor inoculation, at various doses. The animals were weighed and survivors recorded on a regular basis for 30 days. The median survival time and the ratio of survival time for treated (T)/control (C) animals were calculated. The positive control compound was either 1,4-dihydroxy-5,8-bis[[2-(2-hydroxyethylamino)ethyl]-amino]anthraquinone dihydrochloride or Cisplatin.

[1] = Mus musculus, P388, ip, read-out: T/Cx100
[2] = dose 0.2 mg/kg intraperitoneally on days 1, 5 and 9
[3] = dose 0.6 mg/kg intraperitoneally on days 1, 5 and 9, 0.6 mg/kg
[4] = dose 0.8 mg/kg intraperitoneally on days 1, 5 and 9, 0.8 mg/kg
[5] = dose 1.2 mg/kg intraperitoneally on days 1, 5 and 9
[6] = dose 1.25 mg/kg intraperitoneally on days 1, 5 and 9
[7] = dose 1.5 mg/kg intraperitoneally on days 1, 5 and 9
[8] = dose 2.5 mg/kg intraperitoneally on days 1, 5 and 9
[9] = dose 50 mg/kg intraperitoneally on days 1, 5 and 9
[10] = dose 200 mg/kg intraperitoneally on days 1, 5 and 9

Q: What does the source list for `O=C1c2c(O)ccc(O)c2C(=O)c2c(NCCNCCO)ccc(NCCNCCO)c21` [1,4-dihydroxy-5,8-bis[[2-(2-hydroxyethylamino)ethyl]-amino]anthraquinone dihydrochloride]?
A: response vs control in vivo at 0.025 mg/kg [1]: 110%; response vs control in vivo at 0.1 mg/kg [1]: 136%; response vs control in vivo at 0.4 mg/kg [1]: 153%; response vs control in vivo at 1.6 mg/kg [1]: 212%

Q: What does the source list for `N.N.[Cl][Pt][Cl]` [Cisplatin]?
A: Median Survival [2]: 21 days; T/Cx100 [2]: 210%; Median Survival [3]: 21 days and 22.5 days; T/Cx100 [3]: 196% and 221%; Median Survival [4]: 26.5 days and 23.5 days; T/Cx100 [4]: 217% and 235%; Median Survival [5]: 22 days; T/Cx100 [5]: 206%; Median Survival [6]: 13.5 days; T/Cx100 [6]: 132%; Median Survival [7]: 22.5 days; T/Cx100 [7]: 184%; Median Survival [8]: 16 days; T/Cx100 [8]: 150%

Q: How did the “Median Survival” value [9] turn out when “hydrazinecarboximidamide, compound with platinum chloride (1:1)” was run?
A: The value was 20.5 days.

Q: And the T/Cx100 [9]?
A: Its T/Cx100 is 174%.

Q: What about the “Median Survival” value [10] of the same molecule?
A: Its value is 23 days.

Q: And the T/Cx100 [10]?
A: The T/Cx100 was 195%.
